Source: ChEMBL document CHEMBL4017480, “Discovery and optimization of selective FGFR4 inhibitors via scaffold hopping” (Bioorg Med Chem Lett, 2017)

How the values were obtained:
[1] = molecular target: T1, Tyrosine-protein kinase JAK3 (Homo sapiens, UniProt P52333); test: Inhibition of human JAK3 using GEEEEYFELVKKKK as substrate measured after 120 mins in presence of [gamma33P]ATP by P81 ion exchange chromatographic method
T1 sequence (P52333 whole entry): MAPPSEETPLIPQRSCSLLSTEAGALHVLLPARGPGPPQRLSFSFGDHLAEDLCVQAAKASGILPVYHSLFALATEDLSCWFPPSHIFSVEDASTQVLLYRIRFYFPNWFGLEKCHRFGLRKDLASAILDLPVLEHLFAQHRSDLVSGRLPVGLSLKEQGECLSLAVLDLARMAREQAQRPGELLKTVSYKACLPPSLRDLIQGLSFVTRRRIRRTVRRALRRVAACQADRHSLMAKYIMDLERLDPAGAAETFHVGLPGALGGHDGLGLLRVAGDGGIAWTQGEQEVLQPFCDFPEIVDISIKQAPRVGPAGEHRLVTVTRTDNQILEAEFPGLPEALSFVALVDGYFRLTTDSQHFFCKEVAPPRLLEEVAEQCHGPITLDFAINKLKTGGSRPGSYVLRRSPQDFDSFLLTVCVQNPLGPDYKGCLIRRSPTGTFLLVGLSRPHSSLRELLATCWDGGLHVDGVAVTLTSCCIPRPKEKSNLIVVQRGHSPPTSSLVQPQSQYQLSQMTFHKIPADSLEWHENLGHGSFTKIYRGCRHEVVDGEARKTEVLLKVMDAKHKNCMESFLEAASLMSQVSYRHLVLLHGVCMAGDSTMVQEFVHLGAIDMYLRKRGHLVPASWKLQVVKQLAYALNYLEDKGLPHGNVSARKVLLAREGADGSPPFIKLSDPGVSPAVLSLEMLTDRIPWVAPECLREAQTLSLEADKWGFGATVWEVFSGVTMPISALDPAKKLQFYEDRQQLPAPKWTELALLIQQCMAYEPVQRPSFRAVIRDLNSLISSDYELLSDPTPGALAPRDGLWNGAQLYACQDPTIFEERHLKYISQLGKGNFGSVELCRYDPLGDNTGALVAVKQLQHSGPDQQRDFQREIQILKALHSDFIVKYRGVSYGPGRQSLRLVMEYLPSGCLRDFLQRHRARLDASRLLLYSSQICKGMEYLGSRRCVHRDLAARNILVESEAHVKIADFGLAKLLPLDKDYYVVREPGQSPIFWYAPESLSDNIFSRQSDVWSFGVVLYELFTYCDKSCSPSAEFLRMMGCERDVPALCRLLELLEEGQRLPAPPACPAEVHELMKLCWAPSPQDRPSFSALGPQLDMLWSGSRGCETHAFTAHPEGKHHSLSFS

[2] = molecular target: T2, Tyrosine-protein kinase Tec (Homo sapiens, UniProt P42680); test: Inhibition of human TEC using poly[Glu:Tyr] (4:1) as substrate measured after 120 mins in presence of [gamma33P]ATP by P81 ion exchange chromatographic method
T2 sequence (P42680 whole entry): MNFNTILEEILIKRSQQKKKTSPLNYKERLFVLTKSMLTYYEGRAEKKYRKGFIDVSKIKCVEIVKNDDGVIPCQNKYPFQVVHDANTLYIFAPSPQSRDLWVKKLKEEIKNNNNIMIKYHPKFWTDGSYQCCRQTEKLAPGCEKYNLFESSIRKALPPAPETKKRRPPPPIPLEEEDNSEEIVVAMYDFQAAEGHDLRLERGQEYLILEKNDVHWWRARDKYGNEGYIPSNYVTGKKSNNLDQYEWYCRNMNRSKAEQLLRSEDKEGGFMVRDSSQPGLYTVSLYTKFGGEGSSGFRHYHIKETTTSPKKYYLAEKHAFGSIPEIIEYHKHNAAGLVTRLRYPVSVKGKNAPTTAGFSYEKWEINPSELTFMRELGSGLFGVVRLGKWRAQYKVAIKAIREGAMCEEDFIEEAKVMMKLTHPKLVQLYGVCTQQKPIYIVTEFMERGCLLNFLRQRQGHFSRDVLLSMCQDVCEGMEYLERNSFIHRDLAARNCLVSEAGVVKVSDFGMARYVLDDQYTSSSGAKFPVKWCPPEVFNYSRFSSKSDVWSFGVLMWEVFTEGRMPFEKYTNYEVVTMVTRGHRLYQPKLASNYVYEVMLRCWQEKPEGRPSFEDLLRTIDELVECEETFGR

Cytochrome P450 2C19 = Cytochrome P450 2C19 (Homo sapiens, UniProt P33261); test: Inhibition of CYP2C19 in human liver microsomes using S-mephenytoin as substrate pretreated for 10 mins followed by substrate addition measured after 10 mins in presence of NADPH by LC-MS/MS method; format: ADME
Cytochrome P450 2C19, sequence (P33261 whole entry): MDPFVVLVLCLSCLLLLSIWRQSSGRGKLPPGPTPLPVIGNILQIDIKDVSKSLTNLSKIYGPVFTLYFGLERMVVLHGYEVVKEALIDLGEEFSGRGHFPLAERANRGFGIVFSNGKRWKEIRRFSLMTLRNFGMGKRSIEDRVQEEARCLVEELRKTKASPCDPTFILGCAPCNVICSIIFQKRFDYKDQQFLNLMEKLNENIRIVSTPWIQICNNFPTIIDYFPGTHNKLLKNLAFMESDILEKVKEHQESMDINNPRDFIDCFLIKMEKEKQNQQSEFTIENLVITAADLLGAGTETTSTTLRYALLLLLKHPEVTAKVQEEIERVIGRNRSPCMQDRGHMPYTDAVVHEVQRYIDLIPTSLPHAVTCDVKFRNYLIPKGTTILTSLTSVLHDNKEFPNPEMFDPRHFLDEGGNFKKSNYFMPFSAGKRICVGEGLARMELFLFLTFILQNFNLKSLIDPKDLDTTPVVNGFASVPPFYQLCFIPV

[3] = molecular target: Epidermal growth factor receptor (Homo sapiens, UniProt P00533); test: Inhibition of human EGFR using poly[Glu:Tyr] (4:1) as substrate measured after 120 mins in presence of [gamma33P]ATP by P81 ion exchange chromatographic method
Epidermal growth factor receptor, sequence (P00533 whole entry): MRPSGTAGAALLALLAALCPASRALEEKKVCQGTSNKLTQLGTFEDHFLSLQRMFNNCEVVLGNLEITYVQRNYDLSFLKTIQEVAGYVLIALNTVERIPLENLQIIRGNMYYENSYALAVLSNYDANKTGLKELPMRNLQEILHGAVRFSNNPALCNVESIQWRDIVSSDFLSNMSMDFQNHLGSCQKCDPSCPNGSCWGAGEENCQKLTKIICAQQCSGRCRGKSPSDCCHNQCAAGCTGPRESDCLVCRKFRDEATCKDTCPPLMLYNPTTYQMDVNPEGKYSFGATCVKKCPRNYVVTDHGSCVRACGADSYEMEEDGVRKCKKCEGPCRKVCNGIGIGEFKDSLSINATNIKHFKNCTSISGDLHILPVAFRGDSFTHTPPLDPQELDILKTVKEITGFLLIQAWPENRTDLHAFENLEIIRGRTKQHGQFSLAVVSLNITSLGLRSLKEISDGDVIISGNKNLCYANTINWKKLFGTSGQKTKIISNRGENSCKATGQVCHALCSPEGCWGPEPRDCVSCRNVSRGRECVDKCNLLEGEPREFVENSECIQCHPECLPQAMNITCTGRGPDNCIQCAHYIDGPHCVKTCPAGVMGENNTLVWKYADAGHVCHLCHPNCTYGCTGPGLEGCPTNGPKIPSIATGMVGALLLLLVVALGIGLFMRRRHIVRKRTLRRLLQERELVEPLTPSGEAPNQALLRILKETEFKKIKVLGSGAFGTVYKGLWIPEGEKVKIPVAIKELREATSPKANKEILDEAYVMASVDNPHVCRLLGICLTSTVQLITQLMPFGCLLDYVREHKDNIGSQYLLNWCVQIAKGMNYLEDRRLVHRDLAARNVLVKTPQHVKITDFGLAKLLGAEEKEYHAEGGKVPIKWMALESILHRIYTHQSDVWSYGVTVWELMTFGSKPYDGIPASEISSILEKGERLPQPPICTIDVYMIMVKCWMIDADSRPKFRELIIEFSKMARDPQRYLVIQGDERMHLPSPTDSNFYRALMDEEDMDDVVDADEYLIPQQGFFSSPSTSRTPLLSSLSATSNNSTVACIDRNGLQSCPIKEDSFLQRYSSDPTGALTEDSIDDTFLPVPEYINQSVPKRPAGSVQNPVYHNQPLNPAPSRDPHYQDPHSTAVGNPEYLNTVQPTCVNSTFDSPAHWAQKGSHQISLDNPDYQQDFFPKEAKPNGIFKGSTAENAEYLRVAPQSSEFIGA

[4] = Intrinsic clearance in human liver microsomes at 1 uM measured after 60 mins in presence of NADPH by LC-MS/MS analysis; format: ADME, microsome; conditions: read-out: CLH
VEGFR2 = VEGFR2 (Homo sapiens, UniProt P35968); test: Inhibition of human VEGFR2 at 10 uM using poly[Glu:Tyr] (4:1) as substrate measured after 120 mins in presence of [gamma33P]ATP by P81 ion exchange chromatographic method relative to control; conditions: human VEGFR2 kinase, probe poly[Glu:Tyr] (4:1)
VEGFR2, sequence (P35968 whole entry): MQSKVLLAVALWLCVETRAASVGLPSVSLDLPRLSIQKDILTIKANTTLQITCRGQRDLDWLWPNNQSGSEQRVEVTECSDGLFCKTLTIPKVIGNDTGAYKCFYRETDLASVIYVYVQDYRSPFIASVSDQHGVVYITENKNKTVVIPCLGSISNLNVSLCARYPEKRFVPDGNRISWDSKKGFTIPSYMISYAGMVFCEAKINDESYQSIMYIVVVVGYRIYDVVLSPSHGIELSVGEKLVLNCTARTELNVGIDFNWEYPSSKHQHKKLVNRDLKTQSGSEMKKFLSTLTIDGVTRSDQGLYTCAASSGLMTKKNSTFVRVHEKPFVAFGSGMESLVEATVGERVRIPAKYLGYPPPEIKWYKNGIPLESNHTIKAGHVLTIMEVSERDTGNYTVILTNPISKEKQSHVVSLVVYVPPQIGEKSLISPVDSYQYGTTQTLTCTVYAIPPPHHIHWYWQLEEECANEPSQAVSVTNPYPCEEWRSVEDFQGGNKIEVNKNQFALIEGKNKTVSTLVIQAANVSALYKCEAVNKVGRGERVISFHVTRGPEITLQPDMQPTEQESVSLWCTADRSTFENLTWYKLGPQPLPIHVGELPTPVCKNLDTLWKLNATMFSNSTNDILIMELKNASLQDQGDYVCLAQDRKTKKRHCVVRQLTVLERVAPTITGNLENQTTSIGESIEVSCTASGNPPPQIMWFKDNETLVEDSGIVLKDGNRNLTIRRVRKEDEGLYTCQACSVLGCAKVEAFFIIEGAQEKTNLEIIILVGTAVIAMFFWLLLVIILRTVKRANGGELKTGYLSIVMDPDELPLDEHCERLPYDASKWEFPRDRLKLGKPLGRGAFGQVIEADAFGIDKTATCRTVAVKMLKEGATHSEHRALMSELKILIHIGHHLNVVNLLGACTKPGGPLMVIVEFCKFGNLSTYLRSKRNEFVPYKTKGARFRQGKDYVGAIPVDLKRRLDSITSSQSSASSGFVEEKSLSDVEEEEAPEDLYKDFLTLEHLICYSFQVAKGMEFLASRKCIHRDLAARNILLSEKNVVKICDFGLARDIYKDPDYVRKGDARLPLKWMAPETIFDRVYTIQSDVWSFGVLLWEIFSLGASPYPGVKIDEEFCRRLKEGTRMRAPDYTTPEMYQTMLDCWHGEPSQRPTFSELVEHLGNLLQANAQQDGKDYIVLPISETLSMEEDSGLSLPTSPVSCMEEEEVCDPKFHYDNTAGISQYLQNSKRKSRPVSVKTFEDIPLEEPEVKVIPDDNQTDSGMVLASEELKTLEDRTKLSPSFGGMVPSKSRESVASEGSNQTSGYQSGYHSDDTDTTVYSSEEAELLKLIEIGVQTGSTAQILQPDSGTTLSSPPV

[5] = molecular target: Vascular endothelial growth factor receptor 2 (Homo sapiens, UniProt P35968); test: Inhibition of human VEGFR2 using poly[Glu:Tyr] (4:1) as substrate measured after 120 mins in presence of [gamma33P]ATP by P81 ion exchange chromatographic method
Vascular endothelial growth factor receptor 2, sequence (P35968 whole entry): as above

| SMILES | IC50 [1] [µM] | IC50 [2] [µM] | IC50 (Cytochrome P450 2C19) [µM] | IC50 [3] [µM] | CLint scaled at 1 µM [4] [mL/min/kg] | inhibition at 2 h, 10 µM (VEGFR2) [%] | IC50 [5] [µM] |
| --- | --- | --- | --- | --- | --- | --- | --- |
| C=CC(=O)Nc1cccc(C)c1Nc1ncc2cc(-c3c(Cl)c(OC)cc(OC)c3Cl)ccc2n1 | > 10 | > 10 | 1.7 | > 10 | 41 | 23 | > 10 |
| C=CC(=O)Nc1cccc(C)c1Nc1ncc(OCc2c(F)c(OC)cc(OC)c2F)cn1 | > 10 | > 10 | 1.5 | > 10 | 165 | 19 | > 10 |
| C=CC(=O)N[C@H]1COC[C@H]1Nc1ncc(OCc2c(F)c(OC)cc(OC)c2F)cn1 | > 10 | > 10 | 19.8 | > 10 | 18 | 11 | > 10 |
